Starred links: 1 amine or outer side, 2 acyl side, 3 side chain; linkers in the order of their positions; H or OH if unused. Positions of bridges follow the written chain, without caps; N, C: chain ends. Non-standard residues stand in square brackets, D forms with d. Residues, ends and D or L forms follow the SMILES beside them. αMeNle(4R-Me,6-ylidene) = C[C@H](CC=[*:3])C[C@](C)(N[*:1])C(=O)[*:2]; S5 = C=CCCC[C@](C)(N)C(=O)O
Columns and labels:
Estrogen receptor [1] = target: T1, Estrogen receptor (Homo sapiens, UniProt P03372); experiment: Binding affinity to recombinant N-terminal His6-tagged ERalpha LBD (unknown origin) (299 to 554 residues) by surface plasmon resonance method
T1 sequence (P03372 whole entry): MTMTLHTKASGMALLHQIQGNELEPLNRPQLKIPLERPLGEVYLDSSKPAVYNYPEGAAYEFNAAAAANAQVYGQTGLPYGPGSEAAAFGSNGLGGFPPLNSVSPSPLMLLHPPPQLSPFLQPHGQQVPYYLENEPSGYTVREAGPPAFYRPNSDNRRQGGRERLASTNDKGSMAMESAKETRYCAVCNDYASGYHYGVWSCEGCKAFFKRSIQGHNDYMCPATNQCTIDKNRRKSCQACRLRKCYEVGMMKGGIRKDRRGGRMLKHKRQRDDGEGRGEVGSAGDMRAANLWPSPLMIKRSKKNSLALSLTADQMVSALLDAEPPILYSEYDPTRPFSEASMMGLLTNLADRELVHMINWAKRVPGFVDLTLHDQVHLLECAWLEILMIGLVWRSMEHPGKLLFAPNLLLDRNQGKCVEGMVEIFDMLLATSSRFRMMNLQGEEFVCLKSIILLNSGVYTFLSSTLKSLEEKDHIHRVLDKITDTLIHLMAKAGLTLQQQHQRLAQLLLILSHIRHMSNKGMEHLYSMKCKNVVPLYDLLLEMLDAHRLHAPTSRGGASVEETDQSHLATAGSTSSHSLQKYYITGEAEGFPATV

Estrogen receptor [2] = target: T1, Estrogen receptor; experiment: (§1) Binding affinity to recombinant human ERalpha LBD (301 to 553 residues) expressed in Escherichia coli BL21(DE3) by surface plasmon resonance method
Estrogen receptor beta = Estrogen receptor beta (Homo sapiens, UniProt Q92731, C334S/C369S/C481S); experiment: (§2) Binding affinity to recombinant human ERbeta LBD (259 to 498 residues) C334S/C369S/C481S triple mutant expressed in Escherichia coli BL21(DE3) by surface plasmon resonance method
[3] = target: T2, Estrogen receptor (Homo sapiens) (UniProt P03372); experiment: as §1
T2 sequence (whole entry): T1 sequence (P03372 whole entry)

[4] = tested on: Estrogen receptor beta (Homo sapiens), Q92731 [C334S,C369S,C481S]; experiment: as §2
Estrogen receptor [5] = target: T1, Estrogen receptor; experiment: Binding affinity to recombinant human ERalpha LBD (301 to 553 residues) expressed in Escherichia coli BL21(DE3) using FITC-labelled compound after 1 hr by fluorescence polarization method
Estrogen receptor [6] = target: T1, Estrogen receptor; experiment: Displacement of 5-iodoacetamidofluorescein-labelled SRC3 from C417-biotin labelled ERalpha (unknown origin) (304 to 554 residues) after 45 mins by TR-FRET assay

Estrogen receptor beta, sequence (Q92731 whole entry C334S/C369S/C481S, the tested form may be a part): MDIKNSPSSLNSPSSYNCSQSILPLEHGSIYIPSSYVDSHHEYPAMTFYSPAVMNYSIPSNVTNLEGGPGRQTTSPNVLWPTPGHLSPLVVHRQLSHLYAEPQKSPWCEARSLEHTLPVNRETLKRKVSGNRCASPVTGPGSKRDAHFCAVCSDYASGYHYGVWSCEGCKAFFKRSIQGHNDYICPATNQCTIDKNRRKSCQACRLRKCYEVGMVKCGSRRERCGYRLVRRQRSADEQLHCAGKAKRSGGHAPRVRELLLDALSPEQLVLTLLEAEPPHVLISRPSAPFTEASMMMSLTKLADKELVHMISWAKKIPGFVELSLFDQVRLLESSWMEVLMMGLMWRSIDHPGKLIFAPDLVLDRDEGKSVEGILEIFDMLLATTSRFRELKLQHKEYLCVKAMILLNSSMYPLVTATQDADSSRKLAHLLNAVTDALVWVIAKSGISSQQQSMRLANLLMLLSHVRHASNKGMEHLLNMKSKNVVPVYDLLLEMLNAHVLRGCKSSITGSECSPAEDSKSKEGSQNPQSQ
Estrogen receptor beta (Homo sapiens), Q92731 [C334S,C369S,C481S], sequence (Q92731 whole entry C334S/C369S/C481S, the tested form may be a part): as above

SMILES | Kd (Estrogen receptor [2]) [nM] | Kd (Estrogen receptor beta) [nM] | Kdiss [3] [s⁻¹] | Kdiss [4] [s⁻¹] | IC50 (Estrogen receptor [6]) [nM] | further results
CC(=O)N[C@@H](CCCNC(=N)N)C(=O)N[C@@H](CCCNC(=N)N)C(=O)N[C@@H](CCCNC(=N)N)C(=O)N[C@@H](CCCNC(=N)N)C(=O)N[C@@H](CCCCN)C(=O)N[C@@]1(C)CCC/C=C\CCC[C@@](C)(C(=O)N[C@@H](CC(C)C)C(=O)N[C@@H](CCC(N)=O)C(=O)N[C@@H](CC(=O)O)C(=O)N[C@@H](CO)C(N)=O)NC(=O)[C@H](CCCNC(=N)N)NC(=O)[C@H](Cc2cnc[nH]2)NC(=O)[C@H](CC(C)C)NC1=O (Ac-RRRRK[S5]LHR[S5]LQDS-NH2; staple (Z) 6-10) | – | – | – | – | – | Kd (Estrogen receptor [1]): 19 nM
CC[C@H](C)[C@H](NC(=O)[C@H](CCCCN)NC(=O)[C@]1(C)CCC/C=C\CCC[C@](C)(NC(C)=O)C(=O)N[C@@H](CCCCN)C(=O)N[C@@H](CCC(=O)O)C(=O)N[C@@H](CCCCN)C(=O)N1)C(=O)N[C@@H](CC(C)C)C(=O)N[C@@H](Cc1cnc[nH]1)C(=O)N[C@@H](CCC(N)=O)C(=O)N[C@@H](CC(C)C)C(=O)N[C@@H](CC(C)C)C(=O)N[C@@H](CCC(N)=O)C(=O)N[C@@H](CC(=O)O)C(=O)N[C@@H](CO)C(N)=O (Ac-[S5]KEK[S5]KILHQLLQDS-NH2; staple (Z) 1-5) | 8000 | 8300 | – | – | – | –
CC[C@H](C)[C@H](NC(=O)[C@H](CCCCN)NC(=O)[C@H](Cc1cnc[nH]1)NC(C)=O)C(=O)N[C@@H](CC(C)C)C(=O)N[C@@H](Cc1cnc[nH]1)C(=O)N[C@@]1(C)CCC/C=C\CCC[C@@](C)(C(=O)N[C@@H](CO)C(N)=O)NC(=O)[C@H](CCC(N)=O)NC(=O)[C@H](CC(C)C)NC(=O)[C@H](CC(C)C)NC1=O (Ac-HKILH[S5]LLQ[S5]S-NH2; staple (Z) 6-10) | > 15000 | > 15000 | – | – | – | –
CC[C@H](C)[C@H](NC(=O)[C@H](CCCCN)NC(=O)[C@H](Cc1cnc[nH]1)NC(C)=O)C(=O)N[C@@H](CC(C)C)C(=O)N[C@@H](Cc1cnc[nH]1)C(=O)N[C@@H](CCCNC(=N)N)C(=O)N[C@@H](CC(C)C)C(=O)N[C@@H](CC(C)C)C(=O)N[C@@H](CCC(N)=O)C(=O)N[C@@H](CC(=O)O)C(=O)N[C@@H](CO)C(N)=O (Ac-HKILHRLLQDS-NH2) | 2500 | 5000 | 0.347 | 0.376 | – | Kd (Estrogen receptor [1]): 2600 nM
CC[C@H](C)[C@@H]1NC(=O)C[C@H](NC(=O)[C@@H](N)CCCNC(=N)N)C(=O)NC[C@@H](C(=O)N[C@@H](CCCNC(=N)N)C(=O)N[C@@H](CC(C)C)C(=O)N[C@@H](CC(C)C)C(=O)N[C@@H](CCC(N)=O)C(N)=O)NC(=O)[C@H](CC(C)C)NC1=O | – | – | – | – | – | Kd (Estrogen receptor [5]): 85 nM
C=CCCC[C@](C)(NC(=O)[C@H](CCCCN)NC(=O)[C@H](Cc1cnc[nH]1)NC(C)=O)C(=O)N[C@@H](CC(C)C)C(=O)N[C@@H](Cc1cnc[nH]1)C(=O)N[C@@H](CCC(N)=O)C(=O)N[C@@](C)(CCCC=C)C(=O)N[C@@H](CC(C)C)C(=O)N[C@@H](CCC(N)=O)C(=O)N[C@@H](CC(=O)O)C(=O)N[C@@H](CO)C(N)=O (Ac-HK[S5]LHQ[S5]LQDS-NH2) | – | – | – | – | 1200 | –
CC(=O)N[C@@H](Cc1cnc[nH]1)C(=O)N[C@@H](CCCCN)C(=O)N[C@@]1(C)CCC/C=C\CCC[C@@](C)(C(=O)N[C@@H](CC(C)C)C(=O)N[C@@H](CCC(N)=O)C(=O)N[C@@H](CC(=O)O)C(=O)N[C@@H](CO)C(N)=O)NC(=O)[C@H](CCC(N)=O)NC(=O)[C@H](Cc2cnc[nH]2)NC(=O)[C@H](CC(C)C)NC1=O (Ac-HK[S5]LHQ[S5]LQDS-NH2; staple (Z) 3-7) | 352 | 632 | 0.193 | 0.339 | 760 | –

Further lines, with some results ahead:

Kd (Estrogen receptor [2]) [nM] | Kd (Estrogen receptor beta) [nM] | Kdiss [3] [s⁻¹] | Kdiss [4] [s⁻¹] | IC50 (Estrogen receptor [6]) [nM] | SMILES | further results
674 | 1990 | 0.256 | 0.509 | – | CC[C@H](C)[C@@H]1NC(=O)[C@@](C)(NC(=O)[C@H](Cc2cnc[nH]2)NC(C)=O)CCC/C=C\CCC[C@@](C)(C(=O)N[C@@H](CC(C)C)C(=O)N[C@@H](CC(C)C)C(=O)N[C@@H](CCC(N)=O)C(=O)N[C@@H](CC(=O)O)C(=O)N[C@@H](CO)C(N)=O)NC(=O)[C@H](Cc2cnc[nH]2)NC(=O)[C@H](CC(C)C)NC1=O (Ac-H[S5]ILH[S5]LLQDS-NH2; staple (Z) 2-6) | –
– | – | – | – | 96 | CC(=O)N[C@@H](Cc1cnc[nH]1)C(=O)N[C@@H](CCCCN)C(=O)N[C@@]1(C)C[C@H](C)C/C=C\CCC[C@@](C)(C(=O)N[C@@H](CC(C)C)C(=O)N[C@@H](CCC(N)=O)C(=O)N[C@@H](CC(=O)O)C(=O)N[C@@H](CO)C(N)=O)NC(=O)[C@H](CCCNC(=N)N)NC(=O)[C@H](Cc2cnc[nH]2)NC(=O)[C@H](CC(C)C)NC1=O (Ac-HK[αMeNle(4R-Me,6-ylidene)]LHR[S5]LQDS-NH2; staple (Z) 3-7) | –

— ChEMBL document CHEMBL4229451, “Recent advances in peptidomimetics antagonists targeting estrogen receptor α-coactivator interaction in cancer therapy” (Bioorg Med Chem Lett, 2018)
